In PubChem BioAssay AID1963425 (Molecular Pharmacology Branch, DTP, NCI, 2024):
Where “and” joins values, the source holds several entries; their conditions need not be identical. Identical values can stand only once.

Tested on: 323965-272-R-J2-PDC complex spheroid growth, % test/control
Assay: Anticancer human tumor 323965-272-R-J2-PDC patient-derived pancreatic carcinoma cell line growth inhibition [Asc]
Conditions: for viability, T/C: stronger effect = lower value; active = viability on the fitted dose curve at most 10% of control; inactive = the rest
Method in brief: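 Stromal components (HUVEC and hMSC) are co-assembled with the cancer cells into multicellular spheroids. Drugs are then added singly or paired, at concentrations falling by half-log increments from a clinically achievable maximum, capped at 10 microM without known Cmax.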

[1] = curve of first compound, second compound 0.00949 µM
[2] = curve of first compound, second compound 0.03 µM
[3] = curve of first compound, second compound 0.0949 µM
[4] = curve of first compound, second compound 0.3 µM
[5] = curve of first compound, second compound 0.949 µM
[6] = curve of first compound, second compound 3 µM
[7] = second compound 0.00949 µM, first compound 0.0316 µM
[8] = second compound 0.00949 µM, first compound 0.1 µM
[9] = second compound 0.03 µM, first compound 0.0316 µM
[10] = second compound 0.03 µM, first compound 0.1 µM
[11] = second compound 0.0949 µM, first compound 0.0316 µM
[12] = second compound 0.0949 µM, first compound 0.1 µM
[13] = second compound 0.3 µM, first compound 0.0316 µM
[14] = second compound 0.3 µM, first compound 0.1 µM
[15] = second compound 0.949 µM, first compound 0.0316 µM
[16] = second compound 0.949 µM, first compound 0.1 µM
[17] = second compound 3 µM, first compound 0.0316 µM
[18] = second compound 3 µM, first compound 0.1 µM
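Note: compound exposure lasted 7 days starting three days after spheroid seeding.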
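Throughout, for viability, T/C: 100% = DMSO vehicle control wells with viability set relative to vehicle.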

NC1CCC(NC2CC2c2ccccc2)CC1 (stereo not drawn) + CCN1C(C(=O)NC23CCC(C(=O)O)(CC2)CC3)C(c2cccc(Cl)c2F)C2(C(=O)Nc3cc(Cl)ccc32)C12CCCCC2
inactive: viability, T/C (second compound 0.00949 µM, first compound 0.000316 µM) 98.9% | viability, T/C (second compound 0.00949 µM, first compound 0.001 µM) 94.2% | viability, T/C (second compound 0.00949 µM, first compound 0.00316 µM) 94.8% | viability, T/C (second compound 0.00949 µM, first compound 0.01 µM) 97.5% | viability, T/C [7] 98.2% | viability, T/C [8] 88.2% | viability, T/C (second compound 0.03 µM, first compound 0.000316 µM) 97.3% | viability, T/C (second compound 0.03 µM, first compound 0.001 µM) 99.5% | viability, T/C (second compound 0.03 µM, first compound 0.00316 µM) 103% | viability, T/C (second compound 0.03 µM, first compound 0.01 µM) 102% | viability, T/C [9] 97.9% | viability, T/C [10] 92.8% | viability, T/C (second compound 0.0949 µM, first compound 0.000316 µM) 116% | viability, T/C (second compound 0.0949 µM, first compound 0.001 µM) 91% | viability, T/C (second compound 0.0949 µM, first compound 0.00316 µM) 104% | viability, T/C (second compound 0.0949 µM, first compound 0.01 µM) 99.9% | viability, T/C [11] 101% | viability, T/C [12] 88.9% | viability, T/C (second compound 0.3 µM, first compound 0.000316 µM) 99.6% | viability, T/C (second compound 0.3 µM, first compound 0.001 µM) 94.2% | viability, T/C (second compound 0.3 µM, first compound 0.00316 µM) 101% | viability, T/C (second compound 0.3 µM, first compound 0.01 µM) 96.8% | viability, T/C [13] 99.7% | viability, T/C [14] 88.3% | viability, T/C (second compound 0.949 µM, first compound 0.000316 µM) 102% | viability, T/C (second compound 0.949 µM, first compound 0.001 µM) 95.5% | viability, T/C (second compound 0.949 µM, first compound 0.00316 µM) 94.8% | viability, T/C (second compound 0.949 µM, first compound 0.01 µM) 92.5% | viability, T/C [15] 106% | viability, T/C [16] 96% | viability, T/C (second compound 3 µM, first compound 0.000316 µM) 98.6% | viability, T/C (second compound 3 µM, first compound 0.001 µM) 88.3% | viability, T/C (second compound 3 µM, first compound 0.00316 µM) 90.2% | viability, T/C (second compound 3 µM, first compound 0.01 µM) 97.2% | viability, T/C [17] 96.4% | viability, T/C [18] 87.7%
> 100 nM: IC50 [1] | IC50 [2] | IC50 [3] | IC50 [4] | IC50 [5] | IC50 [6]

Cc1nc(N2CCC3(CC2)COC(C)C3N)c(CO)nc1Sc1ccnc(N)c1Cl (stereo not drawn)
2620 nM and 1920 nM and 2500 nM: IC50 (curve of compound)
inactive: viability, T/C (compound 0.00949 µM) 102% and 96% and 110% | viability, T/C (compound 0.03 µM) 83.6% and 82.4% and 93.1% | viability, T/C (compound 0.0949 µM) 78.5% and 71.7% and 79.6% | viability, T/C (compound 0.3 µM) 63.5% and 73.1% and 66% | viability, T/C (compound 0.949 µM) 54.4% (2×) and 55% | viability, T/C (compound 3 µM) 50.1% and 45.6% and 49.1%

O=C(c1ccc(F)c(F)c1Nc1ccc(I)cc1F)N1CC(O)([C@@H]2CCCCN2)C1
inactive: viability, T/C (compound 0.00316 µM) 106% and 101% and 88.5% | viability, T/C (compound 0.01 µM) 82.5% and 96.7% and 83.5% | viability, T/C (compound 0.0316 µM) 87% and 76.1% and 79% | viability, T/C (compound 0.1 µM) 62.9% and 59.7% and 52.5% | viability, T/C (compound 0.316 µM) 34.9% and 34.5% and 31.9% | viability, T/C (compound 1 µM) 19.6% and 20.1% and 18.8%
176 nM and 149 nM and 123 nM: IC50 (curve of compound)

C#Cc1c(F)ccc2cc(O)cc(-c3ncc4c(N5CC6CCC(C5)N6)nc(OCC56CCCN5CC(F)C6)nc4c3F)c12 (stereo not drawn) + CCN1C(C(=O)NC23CCC(C(=O)O)(CC2)CC3)C(c2cccc(Cl)c2F)C2(C(=O)Nc3cc(Cl)ccc32)C12CCCCC2
> 10000 nM: IC50 [1] | IC50 [2] | IC50 [3] | IC50 [4] | IC50 [5] | IC50 [6]
inactive: viability, T/C [7] 100% | viability, T/C [8] 100% | viability, T/C (second compound 0.00949 µM, first compound 0.316 µM) 98.2% | viability, T/C (second compound 0.00949 µM, first compound 1 µM) 92.6% | viability, T/C (second compound 0.00949 µM, first compound 3.16 µM) 81.2% | viability, T/C (second compound 0.00949 µM, first compound 10 µM) 59.4% | viability, T/C [9] 107% | viability, T/C [10] 102% | viability, T/C (second compound 0.03 µM, first compound 0.316 µM) 102% | viability, T/C (second compound 0.03 µM, first compound 1 µM) 106% | viability, T/C (second compound 0.03 µM, first compound 3.16 µM) 83.8% | viability, T/C (second compound 0.03 µM, first compound 10 µM) 63.1% | viability, T/C [11] 104% | viability, T/C [12] 108% | viability, T/C (second compound 0.0949 µM, first compound 0.316 µM) 94.1% | viability, T/C (second compound 0.0949 µM, first compound 1 µM) 88.9% | viability, T/C (second compound 0.0949 µM, first compound 3.16 µM) 70.8% | viability, T/C (second compound 0.0949 µM, first compound 10 µM) 64.2% | viability, T/C [13] 105% | viability, T/C [14] 110% | viability, T/C (second compound 0.3 µM, first compound 0.316 µM) 112% | viability, T/C (second compound 0.3 µM, first compound 1 µM) 91.9% | viability, T/C (second compound 0.3 µM, first compound 3.16 µM) 78.6% | viability, T/C (second compound 0.3 µM, first compound 10 µM) 59.8% | viability, T/C [15] 101% | viability, T/C [16] 104% | viability, T/C (second compound 0.949 µM, first compound 0.316 µM) 102% | viability, T/C (second compound 0.949 µM, first compound 1 µM) 89.7% | viability, T/C (second compound 0.949 µM, first compound 3.16 µM) 79.3% | viability, T/C (second compound 0.949 µM, first compound 10 µM) 64.8% | viability, T/C [17] 102% | viability, T/C [18] 102% | viability, T/C (second compound 3 µM, first compound 0.316 µM) 97.8% | viability, T/C (second compound 3 µM, first compound 1 µM) 84.7% | viability, T/C (second compound 3 µM, first compound 3.16 µM) 63.1% | viability, T/C (second compound 3 µM, first compound 10 µM) 67.9%
